Data published in ChEMBL document CHEMBL3988442, “University of Dundee, Small-Polar-MMV Screening Library” (2021).

Tested on: Schistosoma mansoni
Experiment: High throughput screening of compounds against Schistosoma mansoni motility
Format: functional
Parameters: dose or concentration left out as unconfirmed

O=C(c1cccnc1)N1C[C@@H]2CC[C@H](C1)N(Cc1cccc(Cl)c1F)C2
Percent Effect: 6.232%

COc1ccc(NC(C)C(=O)NCCc2cccs2)cc1F (stereo unspecified)
Percent Effect: -15.23%

CCNS(=O)(=O)c1ccc(C)c(C(=O)N(C)Cc2ccco2)c1
Percent Effect: -32.86%

COc1ncccc1C(=O)NCC1Cc2ccccc2O1 (stereo unspecified)
Percent Effect: -86.67%

CNC(=O)CS(=O)(=O)C1CCN(S(=O)(=O)C2CC2)CC1
Percent Effect: 7.856%

O=S(=O)(c1cccnc1)N1CCN(CCn2ccnc2)CC1
Percent Effect: -24.98%

CCCS(=O)(=O)Nc1ccc2c(c1)OCC(C)(C)C(=O)N2C
Percent Effect: 7.848%

CCc1nnc(CN(C)c2nc(C3CCCC3)nc3c2cnn3C)o1
Percent Effect: 1.111%

COCc1cn([C@@H]2c3ccccc3C3(CCNCC3)[C@H]2O)nn1
Percent Effect: -22.09%

Cc1nn(C)c(N2CCOCC2)c1CNC(C)c1cccnc1 (stereo unspecified)
Percent Effect: -13.95%

CC(C)=CCN1C(=O)[C@H]2CC[C@@H]1CN(Cc1cccnc1N)C2
Percent Effect: -5.593%

CC1CN(C)c2ccccc2CN1C(=O)c1ccc[nH]1 (stereo unspecified)
Percent Effect: -38.54%

COc1cccc(NC(=O)N(CCO)Cc2ccsc2)c1
Percent Effect: -62.57%

NC(=O)c1cccc(CC2CCN(C(=O)CO)C2)c1 (stereo unspecified)
Percent Effect: -14.33%

CCc1noc(C(C)N(C)CC(=O)Nc2cccc(C)n2)n1 (stereo unspecified)
Percent Effect: 0.2571%

CC(C#N)CSc1ccccc1NCC(=O)NCc1ccccc1 (stereo unspecified)
Percent Effect: -63.78%

O=C(CCc1ccc(O)cc1)N1CCC(Cc2ccc(CO)cc2)C1 (stereo unspecified)
Percent Effect: 16.91%

O=C(NCCCn1nc2ccccn2c1=O)NC1CCC(O)CC1 (stereo unspecified)
Percent Effect: -74.25%

O=S(=O)(NCC1(O)CCOc2ccccc21)c1cccs1 (stereo unspecified)
Percent Effect: -21.06%

CCc1nnc2n1CCN(Cc1csc(-c3cnn(C)c3)n1)C2
Percent Effect: -30.99%

Cc1nc[nH]c1CN1C[C@@H]2CC[C@H](C1)N(C(=O)CCc1cnn(C)c1)C2
Percent Effect: -10.53%

COc1cc(C)nc(N2CCN(Cc3nccn3C)CC2)n1
Percent Effect: -41.68%

COc1ccccc1OCC(=O)NCC(O)(c1ccccc1)C1CC1 (stereo unspecified)
Percent Effect: -13.46%

O=C(Nc1ccnc(OC2CCOC2)c1)C1CCC1 (stereo unspecified)
Percent Effect: -37.1%

Cn1cc(CCC(=O)N2C[C@H]3CC[C@@H]2CN(Cc2ccccc2)C3)cn1
Percent Effect: -38.92%

CC[C@@]1(O)CCN(C(=O)c2ccc(-c3cccc(F)c3)cc2)C[C@H]1O
Percent Effect: 16.9%

O=C(c1cc(Cl)c2c(c1)OCO2)N1CCN(c2nccs2)CC1
Percent Effect: -51.67%

COc1ccccc1OCc1cc(C(=O)N2C[C@H](O)[C@@H](N(C)C)C2)n[nH]1
Percent Effect: -29.56%

c1ccc(C2CCCN2Cc2nnnn2C2CC2)cc1 (stereo unspecified)
Percent Effect: -33.61%

O=C1CC(c2cccs2)c2snc(C(=O)O)c2N1 (stereo unspecified)
Percent Effect: 18.04%

Cl.O=C(Cc1ccc(F)cc1)N1CCN(CC(O)C2CC2)CC1 (stereo unspecified)
Percent Effect: -44.17%

COCc1cc(NCCc2ccc(F)cc2)n2nccc2n1
Percent Effect: -25.55%

COc1ccc(NC(=O)NC(C)(C)c2noc(C)n2)cc1
Percent Effect: -52.77%

CC(CNC(=O)c1ccc(F)cc1Cl)N1CCCC1 (stereo unspecified)
Percent Effect: -36.02%

O[C@H]1[C@H](n2cc(-c3cccnc3)nn2)c2ccccc2C12CCNCC2
Percent Effect: -35.88%

CCc1nc(CN2CCCC(N(C)Cc3cnn(C)c3)C2)no1 (stereo unspecified)
Percent Effect: -19.11%

CN(CCC(F)(F)F)C(=O)C1CCCN1C(=O)OC(C)(C)C (stereo unspecified)
Percent Effect: -26.39%

CC(Cn1cncn1)NCc1nncn1C1CCCCC1 (stereo unspecified)
Percent Effect: 4.936%

COCCNC(=O)Cn1nc(C(C)C)c2cnn(C(C)(C)C)c2c1=O
Percent Effect: -20.39%

COCC(NC(=O)c1cc[nH]n1)c1cccc(C(F)(F)F)c1 (stereo unspecified)
Percent Effect: -87.52%

Cc1occc1C(=O)N1CCC2(CCCN(CC3CCC3)C2=O)C1 (stereo unspecified)
Percent Effect: -40.66%

CSCC(CCO)NC(=O)Nc1cc(C)ccc1C (stereo unspecified)
Percent Effect: -11.31%

Cc1cc(N(C)Cc2noc(C)n2)n2nc(C)c(C)c2n1
Percent Effect: -16.19%

O=C(Nc1ccc(F)cc1)N1C[C@H]2CC[C@@H]1CN(Cc1cccnc1)C2
Percent Effect: -3.001%

Cc1cccnc1CN1CCC(c2nnc(Cn3cccn3)n2C)CC1
Percent Effect: -11.55%

Cc1nc(C(C)(C)NC(=O)Nc2ccccc2)no1
Percent Effect: -55.91%

Cc1nccn1-c1cc(CNC(=O)C(C)(C)C)ccn1
Percent Effect: -28.12%

CCc1cc(N[C@H]2CC[C@H](O)CC2)n2nc(C)c(C)c2n1
Percent Effect: 12.6%

Cn1cc(CCNC(=O)NC2CCS(=O)(=O)C2)cn1 (stereo unspecified)
Percent Effect: -23.41%

CN(Cc1ncc[nH]1)S(=O)(=O)c1cccc(C(=O)N2CCOCC2)c1
Percent Effect: -64.53%

COc1cc(CN2CCN(c3cccc(OC)c3)C(=O)C2)cc(OC)c1
Percent Effect: -47.17%

O=C1NCCCCC1Sc1nnc(-c2cccnc2)n1C1CC1 (stereo unspecified)
Percent Effect: -73.97%

Oc1cc(CCC2CCCCN2)cc(-c2ccncc2)c1 (stereo unspecified)
Percent Effect: 6.025%

OCC1CCCN1c1cc(NCCNc2ccccn2)ncn1 (stereo unspecified)
Percent Effect: -56.18%

NC(=O)CN1CCC(NC(=O)c2ccn(-c3cccc(F)c3)n2)CC1
Percent Effect: 5.204%

Cc1cccc(CS(=O)(=O)NCC(O)Cc2ccccc2)c1 (stereo unspecified)
Percent Effect: 8.547%

COc1ccccc1Oc1ncccc1CNC(=O)[C@@H](C)NC(C)=O
Percent Effect: -37.6%

CCS(=O)(=O)N1CCC2(CCCN(Cc3cc(OC)ccc3F)C2)C1 (stereo unspecified)
Percent Effect: 49.58%

CC(C)(C)C(=O)NCCC(=O)NS(=O)(=O)c1ccc2c(c1)OCCO2
Percent Effect: -42.92%

CCc1cc(NC2CCN(S(C)(=O)=O)CC2)n2nc(C)c(C)c2n1
Percent Effect: -49.44%

CC1CN(C)c2ccccc2CN1C(=O)CSc1ccncc1 (stereo unspecified)
Percent Effect: 7.617%

CCCc1n[nH]c(C2CN(C(=O)CCCn3cccn3)CCO2)n1 (stereo unspecified)
Percent Effect: -21.33%

Cc1ccnc(OCC(=O)N2CCC(C(N)=O)CC2)n1
Percent Effect: -71.31%

CC(C)CNC(=O)Nc1ccc(CN2CCOC2=O)cc1
Percent Effect: 8.42%

Cc1cncc(C(=O)N2CCCC(C(=O)CCc3ccccc3)C2)c1 (stereo unspecified)
Percent Effect: -9.118%

CCc1nnc2n1CC(CNCc1ccncc1)CC2 (stereo unspecified)
Percent Effect: -67.25%

O=C(CCc1cc2n(n1)CCCN(Cc1ccccc1F)C2)NC1CC1
Percent Effect: -12.36%

COC(=O)CS(=O)(=O)CCC(=O)N1CCCC1c1ccsc1 (stereo unspecified)
Percent Effect: -22.42%

COCCN1CCC(CN(CC2CCCO2)C(=O)COC)CC1 (stereo unspecified)
Percent Effect: 27.45%

Cc1nsc(N2CCCN(c3nc(C4CC4)ns3)CC2)n1
Percent Effect: -32.57%

Cc1ccccc1N1CCCN(C(=O)CCCS(N)(=O)=O)CC1
Percent Effect: -57.21%

O=C(NCC(O)c1cccs1)c1cccc(Cl)c1 (stereo unspecified)
Percent Effect: -28.05%

COc1ccccc1[C@@H]1CN(C(=O)c2csc(C)n2)C[C@H]1C(=O)O
Percent Effect: 18.41%

O=C(c1cccc(S(=O)(=O)NCCCc2ncc[nH]2)c1)N1CCOCC1
Percent Effect: -82.46%

CC(C)c1nc(CN(C)C2CCN(Cc3nc(C4CC4)no3)C2)no1 (stereo unspecified)
Percent Effect: -10.87%

CCN(CCn1cccn1)Cc1nc(-c2ccccc2F)oc1C
Percent Effect: -13.18%

CS(=O)(=O)c1ccccc1C(=O)NCC1Cc2ccccc2O1 (stereo unspecified)
Percent Effect: -25.81%

CC(C)(C)NC(=O)C1CSCN1S(=O)(=O)c1cccc(F)c1 (stereo unspecified)
Percent Effect: -27.85%

Cc1csc(CNC(=O)Nc2cc(C(F)(F)F)c[nH]c2=O)n1
Percent Effect: 7.294%

N#Cc1c(F)cccc1N1CCC(NS(=O)(=O)c2cccs2)CC1
Percent Effect: 28.82%

CSC(C)C(=O)NCCCc1cc(N)n(-c2ccccc2)n1 (stereo unspecified)
Percent Effect: -59.95%

O=C(Nc1ccnc(OC2CCOC2)c1)c1cc(F)ccc1F (stereo unspecified)
Percent Effect: -26.29%

CCCS(=O)(=O)c1ncc(CN2CCC(CO)CC2)n1CC1CCCO1 (stereo unspecified)
Percent Effect: -65.7%

CCn1nc2c(cc1=O)CN(Cc1nc(N)c3ccccc3n1)CC2
Percent Effect: -40.99%

Cn1c(Cn2ccnc2)nnc1C1CCN(Cc2cccnc2N)CC1
Percent Effect: -10.4%

CCc1n[nH]c(C2CN(CC(=O)NCCc3ccsc3)CCO2)n1 (stereo unspecified)
Percent Effect: -30.25%

CN(C)C(=O)c1ccc2c(c1)N(C)C(CC(=O)NC(C)(C)CO)CO2 (stereo unspecified)
Percent Effect: 4.699%

O=C(NCC(F)F)N1CCC(n2ccc(C(F)(F)F)n2)CC1
Percent Effect: -27.04%

OCCOc1nc(-c2ccccc2Cl)no1
Percent Effect: -41.46%

CCc1cnc2c(c1NCc1ccncc1)c(=O)n(C)c(=O)n2C
Percent Effect: -33.12%

CCc1ncc2c(n1)CN(Cc1nc(C)c(C)o1)CC2
Percent Effect: -33.77%

O=C(CSc1nc2c(cnn2CCO)c(=O)[nH]1)N1CCCCCC1
Percent Effect: -11.33%

CN(C)C(=O)N1CCN(C(=O)C(c2ccccc2F)N(C)C)CC1 (stereo unspecified)
Percent Effect: -1.181%

Cc1nc2ccccn2c1CN(Cc1cccnc1)CC1CCCO1 (stereo unspecified)
Percent Effect: -47.66%

Cn1cc(-c2csc(CN3CCOCC3)n2)cn1
Percent Effect: 14.63%

CSCCCNC(=O)Nc1cccc(-c2nccn2C)c1
Percent Effect: -33.04%

c1cc(C2CCCN2Cc2nnnn2C2CC2)cs1 (stereo unspecified)
Percent Effect: -76.39%

Cc1nc(C)n(CC2CCCN2CCCc2ccccc2)n1 (stereo unspecified)
Percent Effect: -9.599%

COCc1cc(NCc2cc(F)ccc2F)n2nccc2n1
Percent Effect: -61.56%

CC(C)c1cnc(CNc2c(F)cccc2-n2cccn2)o1
Percent Effect: 20.62%

Cc1c[nH]c(CN(C)c2nc(C3CCCC3)nc3c2cnn3C)n1
Percent Effect: -22.17%

COCC(NC(=O)c1ccc[nH]1)c1cccc(C(F)(F)F)c1 (stereo unspecified)
Percent Effect: -105.3%

O=C(c1cccnc1)N1C[C@@H]2CC[C@H](C1)N(Cc1cc(F)ccc1F)C2
Percent Effect: -34.82%

Cn1cnnc1S(=O)(=O)C1CCN(S(=O)(=O)c2ccc(F)c(Cl)c2)CC1
Percent Effect: -43.49%

CNC(=O)C(C)(C)NC(=O)c1cc(OCC2CCC2)cc(C(=O)OC)c1
Percent Effect: -68.4%

CN(C)S(=O)(=O)N1C[C@@H]2CC[C@H](C1)N(Cc1ccc3nsnc3c1)C2
Percent Effect: -23.4%

Cc1nc(CN2CCC(N(C)Cc3noc(C(C)C)n3)C2)cs1 (stereo unspecified)
Percent Effect: -19.62%

COCCn1ccnc1C1CCCN(C(=O)CSCC2CC2)C1 (stereo unspecified)
Percent Effect: -4.392%

Cc1ccc(N2CCN(C(=O)COc3ccccc3)CC2)nn1
Percent Effect: -51.88%

Cc1n[nH]c(C)c1C1CCCN1C(=O)CNC(=O)C(C)(C)C (stereo unspecified)
Percent Effect: -23.3%

O=C(c1cc(=O)[nH]c(=O)[nH]1)N1CCCCC1c1ccc(F)cc1 (stereo unspecified)
Percent Effect: -6.768%
